Entries after “also recorded” stand apart in the source; their conditions may differ. Like-named read-outs stand apart in the source and are kept apart here.
Legend:
zfERα [1] = biological target: T1, zfERα (Danio rerio, UniProt P57717); experiment: HELN-zfERα luciferase transactivation assay; settings: for potency profile among zfER subtypes: Supplementary Fig. 2A and data not shown
T1 sequence (P57717 1-569): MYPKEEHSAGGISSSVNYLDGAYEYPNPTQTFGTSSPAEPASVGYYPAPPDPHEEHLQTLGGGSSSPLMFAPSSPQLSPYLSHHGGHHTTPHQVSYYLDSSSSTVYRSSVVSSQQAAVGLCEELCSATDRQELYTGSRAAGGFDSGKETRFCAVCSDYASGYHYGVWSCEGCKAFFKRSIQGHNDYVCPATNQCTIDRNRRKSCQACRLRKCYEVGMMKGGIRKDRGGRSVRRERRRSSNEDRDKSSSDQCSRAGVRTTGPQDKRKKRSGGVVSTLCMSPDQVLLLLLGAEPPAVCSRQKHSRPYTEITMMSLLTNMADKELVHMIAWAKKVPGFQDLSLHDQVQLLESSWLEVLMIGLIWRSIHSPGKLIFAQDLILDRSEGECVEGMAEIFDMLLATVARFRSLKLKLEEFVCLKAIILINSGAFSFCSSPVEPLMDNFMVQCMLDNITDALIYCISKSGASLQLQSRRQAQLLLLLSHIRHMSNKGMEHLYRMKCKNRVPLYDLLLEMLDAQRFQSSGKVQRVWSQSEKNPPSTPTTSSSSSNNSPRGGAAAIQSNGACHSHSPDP

zfERβ1 [2] = biological target: T2, zfERβ1 (Danio rerio, UniProt Q5PR29); settings: for agonistic activity on zfERβ1 (in words): HELN-zfERβ1; for EC50: read-out: zfERβ1 EC50
zfERβ2 [3] = biological target: T3, zfERβ2 (Danio rerio, UniProt Q7ZU32); settings: for agonistic activity on zfERβ2 (in words): HELN-zfERβ2; for EC50: read-out: zfERβ2 EC50
5×ERE:GFP reporter = settings: 5×ERE:GFP zebrafish larvae, cited from earlier work; for tissue of GFP expression: ref Gorelik et al., 2014
zfERβ1 [4] = biological target: T2, zfERβ1; experiment: cell-based; settings: zfERβ1 EC50, HELN-zfERβ1, 28 °C
zfERβ1 [5] = biological target: T2, zfERβ1; assay type: cell-based, zebrafish; settings: HELN-zfERβ1
hERα = biological target: T4, hERα (Homo sapiens, UniProt P03372); settings: HELN-hERα compared to hERβ, ref Escande et al., 2006, cited from earlier work
T4 sequence (P03372 1-595): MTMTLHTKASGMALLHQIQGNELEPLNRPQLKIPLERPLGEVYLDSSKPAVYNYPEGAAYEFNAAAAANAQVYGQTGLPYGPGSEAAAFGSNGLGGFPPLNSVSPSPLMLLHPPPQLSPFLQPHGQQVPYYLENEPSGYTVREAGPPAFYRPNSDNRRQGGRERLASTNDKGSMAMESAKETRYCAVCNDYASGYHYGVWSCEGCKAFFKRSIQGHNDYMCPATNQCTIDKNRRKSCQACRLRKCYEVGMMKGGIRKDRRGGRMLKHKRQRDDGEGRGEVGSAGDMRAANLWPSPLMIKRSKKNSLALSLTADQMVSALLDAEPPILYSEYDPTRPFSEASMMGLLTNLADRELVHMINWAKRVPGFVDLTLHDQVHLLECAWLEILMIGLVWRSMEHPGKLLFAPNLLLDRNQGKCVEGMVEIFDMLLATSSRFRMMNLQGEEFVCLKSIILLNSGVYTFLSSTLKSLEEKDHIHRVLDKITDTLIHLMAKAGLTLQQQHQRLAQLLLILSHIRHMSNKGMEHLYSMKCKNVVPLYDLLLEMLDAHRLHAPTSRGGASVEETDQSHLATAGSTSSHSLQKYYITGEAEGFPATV

zfERβ2 [6] = biological target: T3, zfERβ2; experiment: cell-based; settings: zfERβ2 EC50, HELN-zfERβ2, 28 °C
zfERα [7] = biological target: T1, zfERα; settings: zebrafish liver-derived cell lines; ref Cosnefroy et al. (2012); cited from earlier work
zfERα [8] = biological target: T1, zfERα; experiment: HELN-zfERα transcriptional inhibition; assay type: cell-based, zebrafish
zfERβ2 [9] = biological target: T3, zfERβ2; experiment: HELN-zfERβ2 transcriptional inhibition; assay type: cell-based, zebrafish
hERβ = hERβ (Homo sapiens, UniProt Q92731); settings: ref Escande et al., 2006; cited from earlier work
hERβ, sequence (Q92731 whole entry): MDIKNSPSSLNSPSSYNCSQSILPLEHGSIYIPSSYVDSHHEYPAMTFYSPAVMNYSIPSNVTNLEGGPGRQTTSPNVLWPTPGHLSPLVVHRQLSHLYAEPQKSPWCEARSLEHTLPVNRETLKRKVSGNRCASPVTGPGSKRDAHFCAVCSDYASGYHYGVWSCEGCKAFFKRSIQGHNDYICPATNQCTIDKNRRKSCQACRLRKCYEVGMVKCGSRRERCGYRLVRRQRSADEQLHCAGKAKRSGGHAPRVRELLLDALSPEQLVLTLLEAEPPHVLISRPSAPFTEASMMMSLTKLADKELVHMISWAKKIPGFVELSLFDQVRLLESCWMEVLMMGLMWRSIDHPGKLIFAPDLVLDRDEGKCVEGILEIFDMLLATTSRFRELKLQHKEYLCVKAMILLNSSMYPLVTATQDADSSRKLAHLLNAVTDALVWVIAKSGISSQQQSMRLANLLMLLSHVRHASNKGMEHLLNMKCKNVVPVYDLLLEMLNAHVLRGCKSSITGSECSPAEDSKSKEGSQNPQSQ

SMILES: O=C1C[C@@H](c2ccc(O)cc2)Oc2cc(O)ccc21 [Liquiritigenin, liquiritigenin]
- EC50 (zfERα [1]; read-out: zfERα EC50, HELN-zfERα, 28 °C): 563 nM
- agonistic activity on zfERβ1 (in words) (zfERβ1 [2]): did not activate zfERβ1 at all

SMILES: CC(C)(C)CC(C)(C)c1ccc(O)cc1 [4-Tert-octylphenol, 4-tert-octylphenol]
- agonistic activity on zfERβ2 (in words) (zfERβ2 [3]): partial agonists
- agonistic activity on zfERβ1 (in words) (zfERβ1 [2]): full agonists

SMILES: C[C@H]1CCCC(=O)CCCCCc2cc(O)cc(O)c2C(=O)O1 [zearalanone]
- potency profile among zfER subtypes (zfERα [1]): zfERα potency > zfERβ1 potency ≥ β2 potency

SMILES: C[C@H]1CCC[C@@H](O)CCCCCc2cc(O)cc(O)c2C(=O)O1 [β-zearalanol]
- potency profile among zfER subtypes (zfERα [1]): zfERα potency > zfERβ1 potency ≥ β2 potency

SMILES: N#CC(Cc1ccc(O)cc1)c1ccc(O)cc1 (stereo not shown) [DPN, 2,3-bis(4-hydroxyphenyl)-propionitrile]
- tissue of GFP expression (5×ERE:GFP reporter): preferentially induced GFP expression in the heart valves

SMILES: C#C[C@]1(O)CC[C@H]2[C@@H]3CCc4cc(O)ccc4[C@H]3CC[C@@]21C [EE2, 17α-ethynyl-1,3,5[10]-estratriene-3,17β-diol]
- EC50 (zfERα [1]; read-out: zfERα EC50, HELN-zfERα, 31 °C): 0.127 nM
- EC50 (zfERα [1]; read-out: zfERα EC50, HELN-zfERα, 34 °C): 0.19 nM
- EC50 (zfERα [1]; read-out: zfERα EC50, HELN-zfERα, 37 °C): 0.947 nM
- EC50 (zfERβ2 [3]; HELN-zfERβ2, 28 °C): ~0.031 nM
- EC50 (zfERβ2 [3]; HELN-zfERβ2, 37 °C): ~0.197 nM
- EC50 (zfERβ1 [2]; HELN-zfERβ1, 37 °C): 0.673 nM

SMILES: CC(C)(c1ccc(O)cc1)c1ccc(O)cc1 [BPA, bisphenol A]
- agonistic activity on zfERα (in words) (zfERα [1]; HELN-zfERα): partial agonist
- EC50 (zfERβ1 [4]; text value in μM): 1.89 µM
- agonistic activity on zfERβ2 (in words) (zfERβ2 [3]): partial agonist
- agonistic activity on zfERβ1 (in words) (zfERβ1 [2]): partial agonist
- tissue of GFP expression (5×ERE:GFP reporter): preferentially induced GFP expression in the heart valves

SMILES: Cc1c(-c2ccc(O)cc2)nn(-c2ccc(O)cc2)c1-c1ccc(OCCN2CCCCC2)cc1.Cl.Cl [MPP, 1,3-bis (4-hydroxyphenyl)-4-methyl-5-[4-(2-piperidinylethoxy)phenol]-1H-pyrazole dihydrochloride]
- antagonistic activity on zfERβ1 (in words) (zfERβ1 [5]): slight zfERβ1 selectivity

SMILES: C[C@H]1CCC[C@H](O)CCCCCc2cc(O)cc(O)c2C(=O)O1 [α-Zearalanol, α-zearalanol]
- EC50 (zfERβ1 [2]; HELN-zfERβ1, 28 °C): 0.71 nM

SMILES: C[C@H]1CCC[C@@H](O)CCC/C=C/c2cc(O)cc(O)c2C(=O)O1 [β-zearalenol]
- potency profile among zfER subtypes (zfERα [1]): zfERα potency > zfERβ1 potency ≥ β2 potency

SMILES: C[C@H]1CCCC(=O)CCC/C=C/c2cc(O)cc(O)c2C(=O)O1 [zearalenone]
- potency profile among zfER subtypes (zfERα [1]): zfERα potency > zfERβ1 potency ≥ β2 potency

SMILES: C[C@]12CC[C@@H]3c4ccc(O)cc4CC[C@H]3[C@@H]1C[C@H]1OC(=O)C[C@]12O [16α-LE2, 3,17-Dihydroxy-19-nor-17α-pregna-1,3,5(10)-triene-21,16α-lactone]
- fold higher potency zfERα compared to zfERβ1 (zfERα [1]; transactivation, 28 °C): approximately 429 fold
- fold higher potency zfERα compared to zfERβ2 (zfERα [1]; transactivation, 28 °C): ~115 fold
- fold potency/selectivity in reporter gene activation hERα over hERβ (hERα): over 1000 fold
- fold potency/selectivity in reporter gene activation hERα over hERβ (hERα; listed as 16α-E2): 1000 fold

SMILES: O=C(c1ccc(O)cc1O)c1ccc(O)cc1O [BP2, 2,2′,4,4′-tetrahydroxybenzophenone]
- agonistic activity on zfERα (in words) (zfERα [1]; HELN-zfERα): full agonist
- fold higher potency zfERα compared to zfERβ1 (zfERα [1]; transactivation, 28 °C): 3 fold
- EC50 (zfERα [1]; zfERα EC50, HELN-zfERα, 28 °C): ~251 nM
- EC50 (zfERβ1 [4]): ~0.803 µM
- EC50 (zfERβ2 [6]): ~233 nM
- agonistic activity on zfERβ2 (in words) (zfERβ2 [3]): full agonist
- fold higher potency zfERβ2 compared to zfERβ1 (zfERβ2 [3]; transactivation, 28 °C): 3 fold
- agonistic activity on zfERβ1 (in words) (zfERβ1 [2]): full agonist
- fold higher potency zfERα compared to zfERβ1 (zfERα [7]): ~2 fold
- fold higher potency zfERα compared to zfERβ2 (zfERα [7]): approximately 1.36 fold

SMILES: O=c1c(-c2ccc(O)cc2)coc2cc(O)cc(O)c12 [Genistein, 40,5,7-trihydroxyisoflavone]
- tissue of GFP expression (5×ERE:GFP reporter): preferentially induced GFP expression in the heart valves

SMILES: C[C@H]1CCC[C@H](O)CCC/C=C/c2cc(O)cc(O)c2C(=O)O1 [α-Zearalenol, α-zearalenol]
- potency profile among zfER subtypes (zfERα [1]): zfERα potency > zfERβ1 potency ≥ β2 potency

SMILES: C[C@]12CC[C@@H]3c4ccc(O)cc4CC[C@H]3[C@@H]1CCC2=O [E1, 1,3,5[10]-estratriene-3-ol-17-one]
- EC50 (zfERβ2 [6]): 12.1 nM

SMILES: C[C@]12CC[C@@H]3c4ccc(O)cc4C[C@@H](CCCCCCCCC[S+]([O-])CCCC(F)(F)C(F)(F)F)[C@H]3[C@@H]1CC[C@@H]2O (stereo partly drawn) [ICI 182,780, 7α,17β-[9[(4,4,5,5,5-pentafluoropentyl)sulfinyl]nonyl]estra-1,3,5(10)-triene-3,17-diol]
- agonistic activity on zfERα (in words) (zfERα [1]; HELN-zfERα): No agonistic activity
- antagonistic activity on zfERα (in words) (zfERα [8]): full antagonistic activity
- IC50 (zfERα [8]; read-out: zfERα IC50, together with 1 nM E2, 28 °C): 3 nM
- agonistic activity on zfERβ2 (in words) (zfERβ2 [3]): No agonistic activity
- antagonistic activity on zfERβ2 (in words) (zfERβ2 [9]): full antagonistic activity
- agonistic activity on zfERβ1 (in words) (zfERβ1 [2]): No agonistic activity
- effect on E2-induced fluorescence in liver (5×ERE:GFP reporter; ref Gorelik and Halpern., 2011): reduce the E2-induced fluorescence in liver
- antagonistic activity on zfERβ1 (in words) (zfERβ1 [5]): full antagonistic activity

SMILES: CCC(=C(c1ccc(O)cc1)c1ccc(OCCN(C)C)cc1)c1ccccc1 [4OH-tamoxifen, 1-[p-dimethylaminoethoxyphenyl]-1-(4-hydroxyphenyl)-2-phenyl-1-butene]
- agonistic activity on zfERα (in words) (zfERα [1]): No agonistic activity
- antagonistic activity on zfERα (in words) (zfERα [8]): full antagonistic activity
- agonistic activity on zfERβ2 (in words) (zfERβ2 [3]): No agonistic activity
- antagonistic activity on zfERβ2 (in words) (zfERβ2 [9]): full antagonistic activity
- agonistic activity on zfERβ1 (in words) (zfERβ1 [2]): No agonistic activity
- antagonistic activity on zfERβ1 (in words) (zfERβ1 [5]): full antagonistic activity

SMILES: CCCc1c(-c2ccc(O)cc2)nn(-c2ccc(O)cc2)c1-c1ccc(O)cc1 [PPT, 4,4′,4″-(4-Propyl-[^1H]-pyrazole-1,3,5-triyl)trisphenol]
- agonistic activity on zfERα (in words) (zfERα [1]; HELN-zfERα): did not activate zfERα at all; also recorded: devoid of agonistic activity
- antagonistic activity on zfERα (in words) (zfERα [8]): full antagonistic activity
- agonistic activity on zfERβ2 (in words) (zfERβ2 [3]): partially activated; also recorded: slightly activated
- agonistic activity on hERβ (in words) (hERβ): unable to activate hERβ
- antagonistic activity on zfERβ2 (in words) (zfERβ2 [9]): partially antagonize
- agonistic activity on zfERβ1 (in words) (zfERβ1 [2]): partially activated; also recorded: slightly activated
- tissue of GFP expression (5×ERE:GFP reporter): GFP labeling of only the larval liver
- antagonistic activity on zfERβ1 (in words) (zfERβ1 [5]): partially antagonize
